The source of these data is patent US7531567B2, “Use of a medicament containing an effector of the glutathione metabolism together with α-lipoic acid in kidney replacement therapy” (Serumwerk Bernburg AG, priority 2001, dated 2009).

What all share (type): cell-based, human
Assay [1] deals with peritoneal macrophages. The experiment in a line: membrane-bound thiol expression of peritoneal macrophages. The following applies: FIG. 5. Here is the method:
Peritoneal macrophages were isolated from the effluate of the peritoneal dialysis of high-grade renally insufficient patients, taken up in cell culture medium and incubated in a gas incubator at 37° C., a relative humidity of 98% and 7.5% relative air-CO2 content. In order to test the influence of the combinations used according to the invention on the thiol status of the peritoneal macrophages, in each case a fraction was treated with α-lipoic acid, the effector of the glutathione metabolism ambroxole or the ACE inhibitor enalapril or with the combination of α-lipoic acid/ambroxole or α-lipoic acid/enalapril, while in each case a further fraction was used as an untreated control. The determination of the cellular thiol status was carried out by means of the measuring method described under 1. The membrane expression of thiols was determined by means of the mean fluorescence intensity (mfi) of the sample (3000 cells/measurement) after coupling to a chloromethylfluorochrome derivative. In FIG. 5, the action of the combination of α-lipoic acid and enalapril (FIG. 5b) on the membrane-bound thiol expression of peritoneal macrophages in the experimental setup described above is presented. The membrane expression of thiols was determined by means of the mean fluorescence intensity (mfi) of the sample (3000 cells/measurement) after coupling to a chloro-methylfluorochrome derivative.

The subject of another assay is T lymphocytes. The experiment in a line: activation markers CD69, CD25, CD71 of phytohemagglutinin-stimulated T lymphocytes. The following applies: thiol-deficient cells, culture period of 72 hours, FIG. 3. Here is the method: In the culture batch described under example 1, human T lymphocytes were stimulated with […] of phyto-hemagglutinin. […] The influence of the combinations used according to the invention on the activation markers CD69 (early activation antigen), CD25 (intermediate activation antigen) and CD71 (late activation antigen) of T lymphocytes was investigated. In FIG. 3, the action of the combination of α-lipoic acid and ambroxole (FIG. 3a), and α-lipoic acid and enalapril (FIG. 3b) on the activation index of T lymphocytes is shown. Compared with normal T lymphocytes (activation index=1.0), in thiol-deficient cells a clear lowering of the activatability, confirming the cellular functional disorder, is to be noted. […] It can thus be concluded that the normalization of the cellular thiol status mediated by the combined use of α-lipoic acid and the respective effectors of the glutathione metabolism is accompanied by a restitution of the cellular functionality.

Assay [2] has as its system peritoneal macrophages. The experiment in a line: degree of differentiation and activation of peritoneal macrophages (CD15, CD11c, CD69, CD71). The following applies: incubation for 6 days, control = 1.0, α-lipoic acid 50 μM, ambroxole 10 μM, enalapril 5 μM, captopril 10 μM. Here is the method: Peritoneal macrophages were isolated from patients under kidney replacement therapy according to the processes described under example 3 and cultured in the presence of the combinations of α-lipoic acid and effectors of the glutathione metabolism named according to the invention. After incubation for 6 days, the degree of differentiation of the peritoneal macrophages was determined cytofluorometrically by means of the expression of the cell surface antigens CD15 and CD11c, and the degree of cellular activation by means of the coexpression of the activation antigens CD69 on CD15-positive cells and CD71 on CD11c-positive cells.

In assay [3] the test system is peritoneal macrophages. Description: cellular thiol expression of peritoneal macrophages in kidney replacement therapy. The following applies: time kinetics over 14 days (n=12); FIG. 4. How it is done: Peritoneal macrophages were isolated from the effluate of the peritoneal dialysis of high-grade renally insufficient patients, taken up in cell culture medium and incubated in a gas incubator at 37° C., a relative humidity of 98% and 7.5% relative air-CO2 content. In order to test the influence of the combinations used according to the invention on the thiol status of the peritoneal macrophages, in each case a fraction was treated with α-lipoic acid, the effector of the glutathione metabolism ambroxole or the ACE inhibitor enalapril or with the combination of α-lipoic acid/ambroxole or α-lipoic acid/enalapril, while in each case a further fraction was used as an untreated control. The determination of the cellular thiol status was carried out by means of the measuring method described under 1. The membrane expression of thiols was determined by means of the mean fluorescence intensity (mfi) of the sample (3000 cells/measurement) after coupling to a chloromethylfluorochrome derivative. In FIG. 4, the effect of the combination of α-lipoic acid and ambroxole (FIG. 4a), and α-lipoic acid and enalapril (FIG. 4b) in the time kinetics over 14 days is shown (n=12).

The subject of assay [4] is peritoneal macrophages. Description: stability of intracellular thiol restitution in peritoneal macrophages in the dialysis model. Here is the method:
The peritoneal macrophages described under example 3, which were thiol-restituted by means of the combinations used according to the invention, were removed from this test system after 6 days and cultured in a dialysis model over a period of 14 days. For this, the peritoneal macrophages were adapted to mobile collagen IV-coated matrices and brought into contact with conventional dialysis solution 3 times daily for 60 minutes each. This model served here for the induction of a combined […]/osmotic stress. In FIG. 6, the action of the combination of α-lipoic acid and ambroxole (FIG. 6a), and α-lipoic acid and enalapril (FIG. 6b) on the intracellular thiol expression of the peritoneal macrophages in the time kinetics is presented. The membrane expression of thiols was determined by means of the mean fluorescence intensity (mfi) of the sample (3000 cells/measurement) after coupling to a chloro-methylfluorochrome derivative.

On to `O=C(O)CCCCC1CCSS1` (stereo not drawn) [α-lipoic acid], for which the “effect on the membrane-bound thiol expression of peritoneal macrophages (in words)” value in the assay on peritoneal macrophages [1] was “very marked effect of the sole administration of α-lipoic acid is to be noted here, which, however, is cancelled out again after 4 days of treatment”. In the assay with T lymphocytes, the “effect on the activation index of T lymphocytes (in words)” value is “slight improvement in the cellular activatability”. Moreover, in the assay with peritoneal macrophages [2] (CD69 on CD15-positive cells), the CD15/69 is reported as 1.09 ± 0.08. The CD11c/71 with peritoneal macrophages [2] (CD71 on CD11c-positive cells) is recorded as 1.08 ± 0.09. For the same compound, in the assay on peritoneal macrophages [2], the CD11c was found to be 1.21 ± 0.11 and the CD15 was 1.18 ± 0.16. Further, the “effect on the cellular thiol expression of peritoneal macrophages (in words)” value with peritoneal macrophages [3] was “increase in the cellular thiol expression”. The “action relative to the action of the combinations” value in the assay on peritoneal macrophages [4] (after about 4 days in the dialysis model) is “approximately 50%”. Besides, the “intracellular thiol status in the dialysis model (in words)” value with peritoneal macrophages [4] (dialysis model over 14 days, FIG. 6) was “only short-lasting”.
